US20240109896A1, “FGFR KINASE INHIBITOR AND USE THEREOF” (YA THERAPEUTICS INC, priority 2021, published 2024)
Where two headings read alike, the source gives them in different places.

Experiments:
[1] = biological target: FGFR3 (Homo sapiens, UniProt P22607); assay: In vitro activity inhibition test for kinase FGFR3;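 further: FGFR3 kinase activity read by Caliper mobility shift assay, compounds run as 10-point 4-fold dilution series, final DMSO 0.5%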
Procedure: (§1) In Vitro Activity Inhibition Test for Kinases FGFR1, FGFR2, FGFR3 and FGFR4
(§2) The activity of FGFR1, FGFR2, FGFR3 and FGFR4 protein kinases was determined by Caliper mobility shift assay. Perform a 4-fold gradient dilution from a working concentration of 0.2 mM in DMSO, diluting 10 concentrations. Add 2 μL of compound to 78 μL of 1× compound buffer. There were 10 points each for the negative control and the positive control. Shake the board on the rocker for 20 min. […] The final concentration of DMSO was 0.5%.

[2] = biological target: FGFR1 (Homo sapiens, UniProt P11362); assay: In vitro activity inhibition test for kinase FGFR1
Chain of FGFR1 (P11362 22-822): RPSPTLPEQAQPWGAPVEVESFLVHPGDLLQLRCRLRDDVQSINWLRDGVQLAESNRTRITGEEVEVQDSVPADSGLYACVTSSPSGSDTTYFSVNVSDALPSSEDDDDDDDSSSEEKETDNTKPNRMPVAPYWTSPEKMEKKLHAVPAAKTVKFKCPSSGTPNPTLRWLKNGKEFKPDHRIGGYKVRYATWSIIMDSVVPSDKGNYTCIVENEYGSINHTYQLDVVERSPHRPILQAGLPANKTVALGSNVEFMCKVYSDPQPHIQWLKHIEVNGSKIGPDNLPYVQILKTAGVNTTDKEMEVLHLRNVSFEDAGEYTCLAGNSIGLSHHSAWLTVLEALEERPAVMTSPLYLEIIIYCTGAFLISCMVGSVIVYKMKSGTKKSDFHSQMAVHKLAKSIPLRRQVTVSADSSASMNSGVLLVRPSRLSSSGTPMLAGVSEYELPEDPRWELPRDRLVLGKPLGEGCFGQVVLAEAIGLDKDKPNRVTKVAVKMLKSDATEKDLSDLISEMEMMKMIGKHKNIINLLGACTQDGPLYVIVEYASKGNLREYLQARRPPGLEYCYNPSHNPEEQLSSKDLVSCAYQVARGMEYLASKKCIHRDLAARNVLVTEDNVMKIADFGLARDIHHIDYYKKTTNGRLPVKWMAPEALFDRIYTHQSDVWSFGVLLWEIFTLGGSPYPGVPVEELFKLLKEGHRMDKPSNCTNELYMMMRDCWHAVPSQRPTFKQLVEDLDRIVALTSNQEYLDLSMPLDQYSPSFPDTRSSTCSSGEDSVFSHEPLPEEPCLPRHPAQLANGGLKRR
Procedure: as §1, §2

[3] = biological target: FGFR2 (Homo sapiens, UniProt P21802); assay: In vitro activity inhibition test for kinase FGFR2; format: biochemical; settings: kinase assay, 25° C.; read-out: Inhibition of separase IC50 (nM) FGFR2
Chain of FGFR2 (P21802 22-821): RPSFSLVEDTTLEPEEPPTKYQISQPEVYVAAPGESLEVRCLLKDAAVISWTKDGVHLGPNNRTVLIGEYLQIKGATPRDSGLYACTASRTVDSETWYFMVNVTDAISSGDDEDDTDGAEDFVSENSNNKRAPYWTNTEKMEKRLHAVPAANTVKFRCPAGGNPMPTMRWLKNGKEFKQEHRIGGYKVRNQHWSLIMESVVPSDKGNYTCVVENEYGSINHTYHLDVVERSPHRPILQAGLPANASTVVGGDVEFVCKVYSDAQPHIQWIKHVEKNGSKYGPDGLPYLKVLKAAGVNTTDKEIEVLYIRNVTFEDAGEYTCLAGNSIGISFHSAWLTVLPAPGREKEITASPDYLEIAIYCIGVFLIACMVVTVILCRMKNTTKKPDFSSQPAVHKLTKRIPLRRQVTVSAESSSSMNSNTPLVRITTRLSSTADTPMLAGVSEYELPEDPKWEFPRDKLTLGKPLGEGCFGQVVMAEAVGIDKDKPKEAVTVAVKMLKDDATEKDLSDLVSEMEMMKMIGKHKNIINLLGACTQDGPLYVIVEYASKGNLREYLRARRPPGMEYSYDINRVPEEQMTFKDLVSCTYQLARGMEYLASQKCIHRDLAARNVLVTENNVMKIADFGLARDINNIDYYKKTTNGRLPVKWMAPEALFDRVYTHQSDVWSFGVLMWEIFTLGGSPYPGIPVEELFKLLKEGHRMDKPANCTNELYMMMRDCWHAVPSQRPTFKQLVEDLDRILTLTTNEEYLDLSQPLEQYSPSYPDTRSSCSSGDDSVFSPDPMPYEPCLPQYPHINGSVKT

[4] = biological target: FGFR4 (Homo sapiens, UniProt P22455); assay: In vitro activity inhibition test for kinase FGFR4;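 further: caliper mobility shift assay of FGFR4 kinase activity, compounds tested as 10-point 4-fold dilution series with 0.5% DMSO final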
Chain of FGFR4 (P22455 22-802): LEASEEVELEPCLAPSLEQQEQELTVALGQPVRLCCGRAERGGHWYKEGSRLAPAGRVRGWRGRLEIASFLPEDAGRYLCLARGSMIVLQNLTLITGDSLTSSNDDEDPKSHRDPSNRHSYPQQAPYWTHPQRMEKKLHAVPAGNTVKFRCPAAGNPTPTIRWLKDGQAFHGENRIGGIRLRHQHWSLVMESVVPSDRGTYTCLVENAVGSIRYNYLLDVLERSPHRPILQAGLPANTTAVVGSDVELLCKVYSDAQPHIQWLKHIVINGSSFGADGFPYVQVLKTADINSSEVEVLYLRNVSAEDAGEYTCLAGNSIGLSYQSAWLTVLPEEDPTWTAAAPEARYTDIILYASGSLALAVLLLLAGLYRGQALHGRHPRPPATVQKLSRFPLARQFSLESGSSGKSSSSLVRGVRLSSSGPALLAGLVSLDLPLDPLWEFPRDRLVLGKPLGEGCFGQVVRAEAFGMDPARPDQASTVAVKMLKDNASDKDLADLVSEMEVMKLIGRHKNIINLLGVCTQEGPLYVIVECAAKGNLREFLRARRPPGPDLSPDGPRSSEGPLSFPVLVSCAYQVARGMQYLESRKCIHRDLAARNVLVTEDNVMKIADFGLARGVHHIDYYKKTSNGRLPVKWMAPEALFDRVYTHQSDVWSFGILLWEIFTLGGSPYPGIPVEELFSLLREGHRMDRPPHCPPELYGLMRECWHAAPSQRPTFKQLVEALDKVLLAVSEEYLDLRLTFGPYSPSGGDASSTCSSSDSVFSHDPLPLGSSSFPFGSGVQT
Procedure: as §1, §2

[5] = read-out: Inhibition IC50 (nM) FGFR3, kinase assay, 25° C.
[6] = read-out: Inhibition of FGFR1 IC50 (nM) FGFR1, kinase assay, 25° C.
[7] = read-out: Inhibition of kinase IC50 (nM) FGFR4, kinase assay, 25° C.

Chain of FGFR3 (P22607 23-806): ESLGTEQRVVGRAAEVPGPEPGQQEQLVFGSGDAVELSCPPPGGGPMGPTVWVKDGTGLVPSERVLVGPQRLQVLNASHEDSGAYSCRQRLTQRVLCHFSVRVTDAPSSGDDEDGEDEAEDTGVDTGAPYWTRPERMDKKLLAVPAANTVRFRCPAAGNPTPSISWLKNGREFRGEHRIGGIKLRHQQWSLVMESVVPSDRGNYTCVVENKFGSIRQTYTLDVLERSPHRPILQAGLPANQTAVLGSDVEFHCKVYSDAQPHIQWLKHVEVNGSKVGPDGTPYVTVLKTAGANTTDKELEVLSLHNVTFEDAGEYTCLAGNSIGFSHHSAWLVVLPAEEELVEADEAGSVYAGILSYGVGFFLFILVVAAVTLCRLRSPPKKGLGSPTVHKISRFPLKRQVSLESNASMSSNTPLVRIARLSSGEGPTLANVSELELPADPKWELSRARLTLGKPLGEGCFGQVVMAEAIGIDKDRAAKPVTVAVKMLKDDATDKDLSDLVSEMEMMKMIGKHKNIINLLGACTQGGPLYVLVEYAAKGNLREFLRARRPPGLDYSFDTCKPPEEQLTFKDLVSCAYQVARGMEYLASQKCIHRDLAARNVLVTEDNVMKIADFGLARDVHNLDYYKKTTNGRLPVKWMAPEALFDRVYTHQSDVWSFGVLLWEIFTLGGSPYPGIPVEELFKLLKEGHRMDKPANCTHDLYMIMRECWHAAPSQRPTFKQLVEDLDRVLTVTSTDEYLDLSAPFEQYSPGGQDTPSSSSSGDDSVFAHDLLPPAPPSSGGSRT

Compound | IC50 [1] | IC50 [2] | IC50 [3] | IC50 [4] | IC50 [1, 5] | IC50 [2, 6] | IC50 [4, 7]
C=CC(=O)N1CC[C@@H](Nc2nc(N)c(C(N)=O)c(C#Cc3cc(OC)cc(OC)c3)n2)C1 [Compound 15, (R)-2-((1-acryloylpyrrolidin-3-yl)amino)-4-amino-6-((3,5-dimethoxyphenyl)ethynyl)pyrimidine-5-carboxamide] | < 10 nM | < 10 nM | < 10 nM | < 10 nM | – | – | –
C=CC(=O)N1CC[C@H](n2cc(-c3cc4ccccc4n3C)c3c(N)n[nH]c(=O)c32)C1 [Compound 40, (S)-1-(1-acryloylpyrrolidin-3-yl)-4-amino-3-(1-methyl-1H-indol-2-yl)-1,6-dihydro-7H-pyrrolo[2,3-d]pyridazin-7-one] | < 10 nM | < 10 nM | < 10 nM | < 10 nM | – | – | –
C=CC(=O)N1CCC(Nc2nc(N)c(C(N)=O)c(C#Cc3cc(OC)cc(OC)c3)n2)CC1 [Compound 10, 2-((1-acryloylpiperidin-4-yl)amino)-4-amino-6-((3,5-dimethoxyphenyl)ethynyl)pyrimidine-5-carboxamide] | 100 to 500 nM | 10 to 100 nM | 10 to 100 nM | 10 to 100 nM | – | – | –
C=CC(=O)N1CC[C@H](Nc2ncc(C(N)=O)c(C#Cc3cc(OC)cc(OC)c3)n2)C1 [Compound 16, (S)-2-((1-acryloylpyrrolidin-3-yl)amino)-4-((3,5-dimethoxyphenyl)ethynyl)pyrimidine-5-carboxamide] | 10 to 100 nM | < 10 nM | < 10 nM | 10 to 100 nM | – | – | –
CC#CC(=O)N1CC[C@H](Nc2ncc(C(F)(F)F)c(C#Cc3cc(OC)cc(OC)c3)n2)C1 [Compound 14, (S)-1-(3-((4-((3,5-dimethoxyphenyl)ethynyl)-5-(trifluoromethyl)pyrimidin-2-yl)amino)pyrrolidin-1-yl)but-2-yn-1-one] | 100 to 500 nM | 10 to 100 nM | 10 to 100 nM | 10 to 100 nM | – | – | –
CC#CC(=O)N1CC[C@H](Nc2ncc(Br)c(C#Cc3cc(OC)cc(OC)c3)n2)C1 [Compound 13, (S)-1-(3-((5-bromo-4-((3,5-dimethoxyphenyl)ethynyl)pyrimidin-2-yl)amino)pyrrolidin-1-yl)but-2-yn-1-one] | 10 to 100 nM | 10 to 100 nM | 10 to 100 nM | 100 to 500 nM | – | – | –
C=CC(=O)N1CCC2(CC(Nc3nc(N)c(C(N)=O)c(C#Cc4cc(OC)cc(OC)c4)n3)C2)C1 (centres unmarked) [Compound 8, 2-((6-acryloyl-6-azaspiro[3.4]octan-2-yl)amino)-4-amino-6-((3,5-dimethoxyphenyl)ethynyl)pyrimidine-5-carboxamide] | 10 to 100 nM | 100 to 500 nM | 10 to 100 nM | 100 to 500 nM | – | – | –
C=CC(=O)N1CC[C@H](n2cc(-c3cc4ccccc4o3)c3c(N)n[nH]c(=O)c32)C1 [Compound 41, (S)-1-(1-acryloylpyrrolidin-3-yl)-4-amino-3-(benzofuran-2-yl)-1,6-dihydro-7H-pyrrolo[2,3-d]pyridazin-7-one] | < 10 nM | < 10 nM | < 10 nM | < 10 nM | – | – | –
C=CC(=O)N1CC[C@H](n2cc(-c3ccc4ccccc4c3)c3c(N)n[nH]c(=O)c32)C1 [Compound 43, (S)-1-(1-acryloylpyrrolidin-3-yl)-4-amino-3-(naphthalen-2-yl)-1,6-dihydro-7H-pyrrolo[2,3-d]pyridazin-7-one] | < 10 nM | < 10 nM | < 10 nM | < 10 nM | – | – | –
C=CC(=O)N[C@H]1CCN(c2nc(N)c(C(N)=O)c(C#Cc3cc(OC)cc(OC)c3)n2)C1 [Compound 17, (S)-2-(3-acrylamidopyrrolidin-1-yl)-4-amino-6-((3,5-dimethoxyphenyl)ethynyl)pyrimidine-5-carboxamide] | < 10 nM | < 10 nM | < 10 nM | < 10 nM | – | – | –
C=CC(=O)N1CC[C@H](Nc2ncc(C#N)c(C#Cc3cc(OC)cc(OC)c3)n2)C1 [Compound 5, (S)-2-((1-acryloylpyrrolidin-3-yl)amino)-4-((3,5-dimethoxyphenyl)ethynyl)pyrimidine-5-carbonitrile] | 100 to 500 nM | 10 to 100 nM | 10 to 100 nM | 10 to 100 nM | – | – | –
C=CC(=O)N1CC[C@H](Nc2ncc(Br)c(C#Cc3cc(OC)cc(OC)c3)n2)C1 [Compound 2, (S)-1-(3-((5-bromo-4-((3,5-dimethoxyphenyl)ethynyl)pyrimidin-2-yl)amino)pyrrolidin-1-yl)prop-2-en-1-one] | 100 to 500 nM | 10 to 100 nM | 10 to 100 nM | 100 to 500 nM | – | – | –
(S)-4-amino-1-(1-(but-2-ynoyl)pyrrolidin-3-yl)-3-((2,6-difluoro-3,5-dimethoxyphenyl)ethynyl)-1,6-dihydro-7H-pyrazolo[3,4-d]pyridazin-7-one [Compound 29] | – | – | < 10 nM | – | < 10 nM | < 10 nM | < 10 nM
CC#CC(=O)N1CC[C@H](n2nc(C#Cc3cc(OC)cc(OC)c3)c3c(N)n[nH]c(=O)c32)C1 [Compound 27, (S)-4-amino-1-(1-(but-2-ynoyl)pyrrolidin-3-yl)-3-((3,5-dimethoxyphenyl)ethynyl)-1,6-dihydro-7H-pyrazolo[3,4-d]pyridazin-7-one] | < 10 nM | < 10 nM | < 10 nM | < 10 nM | – | – | –
C=CC(=O)N1CCC[C@H](Nc2nc(N)c(C(N)=O)c(C#Cc3cc(OC)cc(OC)c3)n2)C1 [Compound 11, (S)-2-((1-acryloylpiperidin-3-yl)amino)-4-amino-6-((3,5-dimethoxyphenyl)ethynyl)pyrimidine-5-carboxamide] | 100 to 500 nM | 10 to 100 nM | 10 to 100 nM | 10 to 100 nM | – | – | –
C=CC(=O)N1CC[C@H](Nc2ncc(C(F)(F)F)c(C#Cc3cc(OC)cc(OC)c3)n2)C1 [Compound 4, (S)-1-(3-((4-((3,5-dimethoxyphenyl)ethynyl)-5-(trifluoromethyl)pyrimidin-2-yl)amino)pyrrolidin-1-yl)prop-2-en-1-one] | 10 to 100 nM | 10 to 100 nM | 100 to 500 nM | 10 to 100 nM | – | – | –
CC#CC(=O)N1CCC[C@H](n2cc(C#Cc3cc(OC)cc(OC)c3)c3c(N)n[nH]c(=O)c32)C1 [Compound 21, (S)-4-amino-1-(1-(but-2-ynoyl)piperidin-3-yl)-3-((3,5-dimethoxyphenyl)ethynyl)-1,6-dihydro-7H-pyrrolo[2,3-d]pyridazin-7-one] | < 10 nM | < 10 nM | < 10 nM | < 10 nM | – | – | –
C=CC(=O)N1CC2(CC(Nc3nc(N)c(C(N)=O)c(C#Cc4cc(OC)cc(OC)c4)n3)C2)C1 [Compound 7, 2-((2-acryloyl-2-azaspiro[3.3]heptan-6-yl)amino)-4-amino-6-((3,5-dimethoxyphenyl)ethynyl)pyrimidine-5-carboxamide] | 10 to 100 nM | 10 to 100 nM | 10 to 100 nM | 10 to 100 nM | – | – | –
CC#CC(=O)N1CC[C@H](n2cc(C#Cc3cc(OC)cc(OC)c3)c3c(N)n[nH]c(=O)c32)C1 [Compound 23, (S)-4-amino-1-(1-(but-2-ynoyl)pyrrolidin-3-yl)-3-((3,5-dimethoxyphenyl)ethynyl)-1,6-dihydro-7H-pyrrolo[2,3-d]pyridazin-7-one] | < 10 nM | < 10 nM | < 10 nM | < 10 nM | – | – | –
C=CC(=O)N1CC[C@H](Nc2nc(N)c(C(N)=O)c(C#Cc3cc(OC)cc(OC)c3)n2)C1 [Compound 6, (S)-2-((1-acryloylpyrrolidin-3-yl)amino)-4-amino-6-((3,5-dimethoxyphenyl)ethynyl)pyrimidine-5-carboxamide] | < 10 nM | < 10 nM | < 10 nM | < 10 nM | – | – | –
C=CC(=O)N1CC[C@H](Nc2ncc(F)c(C#Cc3cc(OC)cc(OC)c3)n2)C1 [Compound 3, (S)-1-(3-((4-((3,5-dimethoxyphenyl)ethynyl)-5-fluoropyrimidin-2-yl)amino)pyrrolidin-1-yl)prop-2-en-1-one] | 10 to 100 nM | 10 to 100 nM | 10 to 100 nM | 10 to 100 nM | – | – | –
CC#CC(=O)N1CC[C@H](n2cc(-c3ccc4ccccc4c3)c3c(N)n[nH]c(=O)c32)C1 [Compound 39, (S)-4-amino-1-(1-(but-2-ynoyl)pyrrolidin-3-yl)-3-(naphthalen-2-yl)-1,6-dihydro-7H-pyrrolo[2,3-d]pyridazin-7-one] | < 10 nM | < 10 nM | < 10 nM | < 10 nM | – | – | –
C=CC(=O)N1CC[C@H](n2cc(-c3cn(C)c4ccccc34)c3c(N)n[nH]c(=O)c32)C1 [Compound 42, (S)-1-(1-acryloylpyrrolidin-3-yl)-4-amino-3-(1-methyl-1H-indol-3-yl)-1,6-dihydro-7H-pyrrolo[2,3-d]pyridazin-7-one] | < 10 nM | < 10 nM | < 10 nM | < 10 nM | – | – | –
C=CC(=O)N1CCC(c2nc(N)c(C(N)=O)c(C#Cc3cc(OC)cc(OC)c3)n2)C1 (centres unmarked) [Compound 18, 2-(1-acryloylpyrrolidin-3-yl)-4-amino-6-((3,5-dimethoxyphenyl)ethynyl)pyrimidine-5-carboxamide] | < 10 nM | 10 to 100 nM | < 10 nM | < 10 nM | – | – | –
CC#CC(=O)N1CCC[C@H](n2nc(C#Cc3cc(OC)cc(OC)c3)c3c(N)n[nH]c(=O)c32)C1 [Compound 25, (S)-4-amino-1-(1-(but-2-ynoyl)piperidin-3-yl)-3-((3,5-dimethoxyphenyl)ethynyl)-1,6-dihydro-7H-pyrazolo[3,4-d]pyridazin-7-one] | < 10 nM | < 10 nM | < 10 nM | < 10 nM | – | – | –
2-(1-acryloylpyrrolidin-3-yl)-4-((3,5-dimethoxyphenyl)ethynyl)pyrimidine-5-carboxamide [Compound 19] | – | – | < 10 nM | – | < 10 nM | < 10 nM | < 10 nM
